Measurements published in article PMC5608031 (Hormone molecular biology and clinical investigation, 2017).

Target: human cytosolic sulfotransferase 1C4 (hSULT1C4) (Homo sapiens, UniProt O75897)
Experiment: biochemical
Format: binding

human cytosolic sulfotransferase 1C4 (hSULT1C4), sequence (O75897 whole entry): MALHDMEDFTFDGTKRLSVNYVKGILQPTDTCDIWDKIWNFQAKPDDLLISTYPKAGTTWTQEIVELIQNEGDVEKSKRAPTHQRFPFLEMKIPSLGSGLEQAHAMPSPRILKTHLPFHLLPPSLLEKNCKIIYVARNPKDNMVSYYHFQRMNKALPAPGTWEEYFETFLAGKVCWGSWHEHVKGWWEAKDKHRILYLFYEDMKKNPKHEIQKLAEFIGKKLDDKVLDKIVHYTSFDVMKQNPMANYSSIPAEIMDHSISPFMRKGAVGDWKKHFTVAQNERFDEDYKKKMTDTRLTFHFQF

Kd: 2800 ± 200 nM
SMILES: Nc1ncnc2c1ncn2[C@@H]1O[C@H](COP(=O)(O)O)[C@@H](OP(=O)(O)O)[C@H]1O [PAP]
